Patent US11279734B2, “Solution-phase affinity selection of inhibitors from combinatorial peptide libraries” (Massachusetts Institute of Technology, priority 2017, dated 2022)
“Also recorded” adds a separate entry of the source. Where two headings read alike, the source gives them in different places. Where no end group is shown, it is not given here. [ ]: non-standard residue; d: D form. Cha = N[C@@H](CC1CCCCC1)C(=O)O

Experiments:
MDM2 [1] = target: T1, MDM2 (Homo sapiens, UniProt Q00987); test: Kd MDM2 (nM)
Description: Table printed on a drawing sheet, Figure 2B
Head of the field: Kd MDM2 (nM)
The patent's description of the figure: FIGS. 2A-2F: Rapid combinatorial mapping of pDI (6) key binding residues and affinity selection of potent non-canonical inhibitors of ^25-109MDM2 and C-CA proteins. FIG. 2A) Combinatorial mapping of pDI (6) binding hotspots, library design. Represented are 6's randomized residues using L-configured (circles) natural amino acids. FIG. 2B) Affinity selected sequences from Library 1 and 2 at different stringencies (sequences 1 to 9) were validated after resynthesis and biotinylation or acetylation (peptides 1a to 6a and 7b to 9b) using bio-layer interferometry (BLI). In bold italic are represented randomized residues, and those that were varied compared to sequence 6. FIG. 2C) Expanding linear inhibitor hotspots to non-canonical amino acids. Library 3 was designed around 6 while Library 4 was designed around CAI (37) inhibitor. Depicted are randomized residues using non-canonical amino acids (abbreviations for each monomer are indicated in bold). FIG. 2D) Affinity selection from Library 3 at higher stringency using 6 as a soluble competitive inhibitor. […]
First copying reader's note: Randomized residues are printed in italic (bold or grey); this styling is not kept in the grid.
Where the first naming reader finds the target: head: Kd MDM2 (nM)

SUMO-25-109 MDM2 [2] = target: T2, SUMO-25-109 MDM2 (Homo sapiens, UniProt Q00987); test: BLI in solution competition assay; assay type: binding; conditions: for binding to MDM2 (in words): acetylated peptides or mini-proteins, BLI
Experimental: Calibration Curve: Streptavidin (SA) sensors were soaked in competition buffer (PBS supplemented with 0.05% Tween-20, and L-arginine pH 7.5) for 10 minutes at 30° C. […] The thus obtained biotinylated 63a (0.5 μM in competition buffer) was loaded on the SA sensor for 10 minutes at 30° C. and 1000 rpm. […] A calibration curve corresponding to binding response at equilibrium (in nm)=f(free [MDM2] in nM) was generated using GraphPad Prism 6 software using non-linear regression analysis (see FIG. 5).
Meanwhile, SA sensors were soaked in competition buffer for 10 minutes at 30° C. […] Based on the binding (nm) values, the concentration of “free” MDM2 was interpolated for each sample using the calibration curve. […] The following equation was used to generate fitted curves.

SJSA-1 cells [3] = test: Western blot analysis of p53 activation (MDM2, p21); assay type: cell-based; conditions: 10 μM, 12 hours
Experimental: SJSA-1 and K-562 cells were seeded in 6 well plates at a cell density of 350*10^3 cells/well in RPMI-1640 media supplemented with 10% serum and 1% Pen-Strep and incubated overnight at 37° C. and 5% CO2. The next day cells were treated with peptides and controls at 10 μM for 12 hours. Then cells were harvested and their pellets washed (2×) with PBS and lysed in 100 μL of RIPA buffer supplemented with Roche protease inhibitor cocktail on ice for 30 minutes. The lysates were clarified by brief centrifugation at 4° C. and total protein concentration was determined using the Bio-Rad DC protein assay. Aliquots of the cell lysates were run on 12% Tris-Glycine polyacrylamide gels (Invitrogen). After transfer using Trans-Blot Turbo Transfer system (Biorad), the membrane was blocked at room temperature for 2 hours with LI-COR blocking buffer. The membrane was cut in three and each part was incubated respectively with anti-MDM2 (mouse, SMP14: sc-965, Santa Cruz Biotechnology), anti-p21 (mouse, F-5: sc-6246, Santa Cruz Biotechnology) and anti-GAPDH (rabbit, GAPDH (D16H11) XP®, Cell Signaling Technology) antibodies in TBST overnight at 4° C. The membranes were washed and incubated with the appropriate secondary antibodies in TBST for 1 h at room temperature, washed again, then imaged with the LI-COR Odyssey infrared imaging system (see FIGS. 103-105).

K-562 cells = test: Cell viability assay (MTS); assay type: cell-based; conditions: K-562 p53-null cells, 72 hours
Experimental: (§1) SJSA-1, K-562 and MCF-7 cells were plated in 96-well plates in RPMI-1640 containing 10% FBS and 1% Pen-Strep and the next day were treated with the indicated concentrations of peptide or vehicle control. Peptide stocks were diluted into RPMI-1640 containing 10% FBS and 1% Pen-Strep to achieve 2× working individual stock solutions that were thoroughly mixed then diluted into the treatment wells. Cell viability was assayed after 72 hours by addition of CellTiter 96® AQueous One Solution Cell Proliferation reagent (MTS). All assays were performed in triplicate, and data was normalized to vehicle treated control and analyzed using Prism software (GraphPad Software).

MCF-7 cells = test: Cell viability assay (MTS); assay type: cell-based; conditions: MCF-7 cells (MDM2 and MDMX overexpressing), 72 hours
Experimental: as §1

SJSA-1 cells [4] = test: Cell viability assay (MTS); assay type: cell-based; conditions: 72 hours
Experimental: as §1

MDM2 [5] = target: T1, MDM2; test: HPSEC affinity selection under increasing stringency (EIC peak area); assay type: binding; conditions: usual stringency vs 100 μM of 6 and MDM2 lowered to […]
Experimental: SEC conditions: unless stated otherwise, high performance size exclusion column BIO-SEC-3, 7.8×150 mm, 3 μm particle size and 100 Å pore size was used. 100 μL of binding mixture containing peptides or peptide libraries and protein target was isocratically eluted in buffered mobile phase (25 mM Tris, 50 mM NaCl, pH 7.5, with or without L-arginine supplementation) at 1 mL/min flow rate for 15 minutes (typical backpressure ˜80-90 bars for a brand new column). Generally, mobile phase is also used as the binding buffer for affinity selection experiments, and systematically before each experiment a blank injection is performed consisting in a protein only injection. During affinity selection experiments the breakthrough fraction (protein fraction) was monitored by UV and collected. The latter contained the protein-binder complexes which were dissociated using 0.2% formic acid before characterization using LC-MS or LC-MS/MS analysis.

SUMO-25-109 MDM2 [6] = target: T2, SUMO-25-109 MDM2; assay type: binding; conditions: biotinylated peptides, BLI

Ac-LTYEHYWAQLTSK-NH2 [SEQ ID NO: 67 | 8b]
Kd (MDM2 [1]): 2.7 µM

Bio-(PEG)4- Leu Thr F2f Glu His Tyr Hexa Ala Gln Cba Thr Ser Lys -NH2 [(SEQ ID NO: 11) | 10a]
Kd (MDMX): 0.026 µM

Bio-(PEG)4- Leu Thr F2f Glu His Tyr Trp Ala Gln Cba Thr Ser Lys -NH2 [(SEQ ID NO: 12) | 11a]
Kd (MDMX): 0.033 µM

Bio-(PEG)4- Leu Thr Phe Glu His Tyr Trp Ala Gln Leu Thr Ser Lys -NH2 [(SEQ ID NO: 8) | 6a]
Kd (MDMX): 0.083 µM

KAWYAN(CF3f)EKLLR [peptide 53]
affinity for MDM2 lower than 54b (SUMO-25-109 MDM2 [2]; label free approach, relative to 54b): about 20 fold

KAWYAN[Cha]EKLLR [peptide 45]
Kd (SUMO-25-109 MDM2 [2]; in solution competition, acetylated peptide or mini-protein, fitted titration curve): 0.0061 µM

LT(F2f)(Dap)EYWAQ(Cba)(Dap)SAA [peptide 11b-S1]
binding to MDM2 (in words) (SUMO-25-109 MDM2 [2]; in solution competition): low nanomolar affinity | upregulation of MDM2 and p21 (SJSA-1 cells [3]): upregulated MDM2 and P21 markers; also recorded: upregulated p53 gene products p21 and MDM2 | cell viability (K-562 cells): did not significantly lower K-562 viability | cell viability (MCF-7 cells): lowered viability for MCF-7 cells | cell killing / viability (SJSA-1 cells [4]): cell-killing properties; also recorded: killed SJSA-1 cells

LT(F2f)(R8)EFWAQ(Cba)(S5)SAA [peptide 11b-M]
binding to MDM2 (in words) (SUMO-25-109 MDM2 [2]; in solution competition): low nanomolar affinity | upregulation of MDM2 and p21 (SJSA-1 cells [3]): upregulated p21 and MDM2 | cell killing / viability (SJSA-1 cells [4]): cell-killing properties

LT(F2f)(R8)EY(Hexa)AQ(Cba)(S5)SAA [peptide 10b-M]
binding to MDM2 (in words) (SUMO-25-109 MDM2 [2]; in solution competition): low nanomolar affinity | upregulation of MDM2 and p21 (SJSA-1 cells [3]): upregulated MDM2 and P21 markers | cell viability (K-562 cells): did not significantly lower K-562 viability | cell viability (MCF-7 cells): lowered viability for MCF-7 cells | cell killing / viability (SJSA-1 cells [4]): cell-killing properties; also recorded: killed SJSA-1 cells

LT(F2f)(R8)EY(Napa)AE(Cba)KSAA [peptide 27b-M]
binding to MDM2 (in words) (SUMO-25-109 MDM2 [2]; in solution competition): low nanomolar affinity | upregulation of MDM2 and p21 (SJSA-1 cells [3]): upregulated p21 and MDM2 | cell viability (K-562 cells): did not significantly lower K-562 viability | cell viability (MCF-7 cells): lowered viability for MCF-7 cells | cell killing / viability (SJSA-1 cells [4]): cell-killing properties

LT(F2f)EHY(Hexa)AQ(Cba)TSK [peptide 10]
EIC peak area variation from condition (A) to (D) (MDM2 [5]): 4.5 fold

LT(F2f)EHY(Hexa)AQ(Cba)TSK [peptide 10a]
binding to MDM2 (in words) (SUMO-25-109 MDM2 [6]): high affinity binder

LT(F2f)EHY(Hexa)AQ(Cba)TSK [peptide 10b]
binding to MDM2 (in words) (SUMO-25-109 MDM2 [2]; in solution competition): low nanomolar affinity to MDM2

LT(F2f)EHYWAQ(Cba)TSK [peptide 11]
EIC peak area variation from condition (A) to (D) (MDM2 [5]): 30 fold

LT(F2f)EHYWAQ(Cba)TSK [peptide 11b]
binding to MDM2 (in words) (SUMO-25-109 MDM2 [2]; in solution competition): low nanomolar affinity

LT(F2f)KEY(Hexa)AQ(Cba)(K)SAA [peptide 10b-S4]
binding to MDM2 (in words) (SUMO-25-109 MDM2 [2]; in solution competition): weakened or abrogated binding

LT(F2f)KEYWAE(Cba)KSAA [peptide 11b-S4]
binding to MDM2 (in words) (SUMO-25-109 MDM2 [2]; in solution competition): weakened or abrogated binding

LTFCys(ar)HYWAQFCys(ar)SK [peptide 61a]
binding to MDM2 (in words) (SUMO-25-109 MDM2 [6]): substantially weaker binding compared to 60a

LTFEHYWAQFTSK [peptide 5a]
binding to MDM2 (in words) (SUMO-25-109 MDM2 [6]): nanomolar binder
